Converted amounts (≈) assume the structure as drawn.
Test system: C. difficile ATCC BAA 1801
Experiment: MIC, broth microdilution, initial screening
Type: cell-based, Clostridioides difficile
Settings: for MIC: C. difficile ATCC BAA 1801, anaerobic, 48 hours
[1] = Clostridioides difficile, BAA1801, 48 h

O=C(Nc1nnc(-c2cccc(F)c2)o1)c1ccc(SC(F)(F)F)cc1 [compound 4, N-(5-(3-Fluorophenyl)-1,3,4-oxadiazol-2-yl)-4-((trifluoromethyl)thio)benzamide]
MIC [1]: 0.03 µg/mL (≈ 0.0783 µM)

O=C(Nc1nnc(-c2cccc(Cl)c2)o1)c1ccc(SC(F)(F)F)cc1 [compound 5, N-(5-(3-Chlorophenyl)-1,3,4-oxadiazol-2-yl)-4-((trifluoromethyl)thio)benzamide]
MIC [1]: 0.03 µg/mL (≈ 0.075 µM)

COc1cccc(-c2nnc(NC(=O)c3ccc(SC(F)(F)F)cc3)o2)c1 [compound 6, N-(5-(3-Methoxyphenyl)-1,3,4-oxadiazol-2-yl)-4-((trifluoromethyl)thio)benzamide]
activity against C. difficile ATCC BAA 1801 in words: only moderate to no actvity | MIC [1]: 4 µg/mL (≈ 10.1 µM)

O=C(Nc1nnc(-c2cccc(C(F)(F)F)c2)o1)c1ccc(SC(F)(F)F)cc1 [compound 7, N-(5-(3-Trifluoromethylphenyl)-1,3,4-oxadiazol-2-yl)-4-((trifluoromethyl)thio)benzamide]
MIC [1]: 0.015 µg/mL (≈ 0.0346 µM)

O=C(Nc1nnc(-c2ccc(F)cc2)o1)c1ccc(SC(F)(F)F)cc1 [compound 8, N-(5-(4-Fluorophenyl)-1,3,4-oxadiazol-2-yl)-4-((trifluoromethyl)thio)benzamide]
MIC [1]: 4 µg/mL (≈ 10.4 µM)

O=C(Nc1nnc(-c2ccc(Cl)cc2)o1)c1ccc(SC(F)(F)F)cc1 [compound 9, N-(5-(4-Chlorophenyl)-1,3,4-oxadiazol-2-yl)-4-((trifluoromethyl)thio)benzamide]
MIC [1]: 2 µg/mL (≈ 5 µM)

O=C(Nc1nnc(-c2ccc(C(F)(F)F)cc2)o1)c1ccc(SC(F)(F)F)cc1 [compound 10, N-(5-(4-Trifluoromethylphenyl)-1,3,4-oxadiazol-2-yl)-4-((trifluoromethyl)thio)benzamide]
MIC [1]: 0.125 µg/mL (≈ 0.288 µM)

COc1ccc(-c2nnc(NC(=O)c3ccc(SC(F)(F)F)cc3)o2)cc1 [compound 11, N-(5-(4-Methoxyphenyl)-1,3,4-oxadiazol-2-yl)-4-((trifluoromethyl)thio)benzamide]
activity against C. difficile ATCC BAA 1801 in words: only moderate to no actvity | MIC [1]: 4 µg/mL (≈ 10.1 µM)

CC(C)c1ccc(-c2nnc(NC(=O)c3ccc(SC(F)(F)F)cc3)o2)cc1 [compound 13, N-(5-(4-Isopropylphenyl)-1,3,4-oxadiazol-2-yl)-4-((trifluoromethyl)thio)benzamide]
activity against C. difficile ATCC BAA 1801 in words: only moderate to no actvity | MIC [1]: 128 µg/mL (≈ 314 µM)

O=C(Nc1nnc(-c2ccc(Cl)cc2Cl)o1)c1ccc(SC(F)(F)F)cc1 [compound 14, N-(5-(2,4-Dichlorophenyl)-1,3,4-oxadiazol-2-yl)-4-((trifluoromethyl)thio)benzamide]
MIC: 0.03 µg/mL (≈ 0.0691 µM) | MIC [1]: 0.06 µg/mL (≈ 0.138 µM)

COc1ccc(Cl)cc1-c1nnc(NC(=O)c2ccc(SC(F)(F)F)cc2)o1 [compound 16, N-(5-(5-Chloro-2-methoxyphenyl)-1,3,4-oxadiazol-2-yl)-4-((trifluoromethyl)thio)benzamide]
MIC [1]: 2 µg/mL (≈ 4.65 µM)

O=C(Nc1nnc(-c2ccccn2)o1)c1ccc(SC(F)(F)F)cc1 [compound 17, N-(5-(Pyridin-2-yl)-1,3,4-oxadiazol-2-yl)-4-((trifluoromethyl)thio)benzamide]
activity against C. difficile ATCC BAA 1801 in words: only moderate activity | MIC [1]: 8 µg/mL (≈ 21.8 µM)

Reference: article PMC9064041 (Journal of medicinal chemistry, 2020)
